The values below are quoted from earlier work in patent US20200254013A1, “COMPOSITIONS COMPRISING ALPHA-POLYGLUTAMIC ACID-ZINC FOR TREATING CANCER” (XYLONIX IP HOLDINGS PTE. LTD., priority 2017, published 2020).

Data set [1] concerns folate receptor (FR), FR-α and FR-β.
The conditions of data set [2]: dietary administration 240 ppm, after 9-14 days.
The subject of data set [3] is murine thymocytes, murine splenic lymphocytes, human Ramos B, and human Jurkat T cells. The following applies: nanomolar concentrations.
Data set [4] has as its system LNCaP, PC3, DU145 prostate cancer cell lines. The note with it: 1-10 μM.

With `CN(CC1CNc2nc(N)[nH]c(=O)c2N1C)c1ccc(C(=O)N[C@@H](CCC(=O)O)C(=O)O)cc1` (stereo partly shown) [DMTHF, N^5, N^10-dimethyl tetrahydrofolate], in data set [1], the “affinity for FR-α versus FR-β” value was “higher affinity for FR-α over FR-β”.
Regarding zinc pyrithione, the “neurological toxicity in rats” value in data set [2] was “acute neurological toxicity”. For the same molecule, in data set [3], the “apoptosis in leukocyte-originating cells” value is “induced zinc-specific apoptosis”. Moreover, the “ATP-depletion and necrosis in prostate cancer cell lines” value in data set [4] is “elicited ATP-depletion and, eventually, ERK and PKC-dependent necrosis”.
